In brackets after ≈: the same amount, converted by molar mass.
How the values were obtained:
Staphylococcus aureus [1] = assay: Antimicrobial activity against Staphylococcus aureus ATCC 25923 at 1 ug/ml after 24 hrs by agar diffusion method; assay type: functional; conditions: ATCC 25923, 24 h, read-out: DIZ
Salmonella enterica [2] = assay: Antimicrobial activity against Salmonella enterica ATCC 14028 at 1 ug/ml after 24 hrs by agar diffusion method; assay type: functional; conditions: ATCC 14028, 24 h, read-out: DIZ
Pseudomonas aeruginosa [3] = assay: Antimicrobial activity against Pseudomonas aeruginosa ATCC 9027 at 1 ug/ml after 24 hrs by agar diffusion method; assay type: functional; conditions: ATCC 9027, 24 h, read-out: DIZ
Bacillus subtilis [4] = assay: Antimicrobial activity against Bacillus subtilis ATCC 6633 at 1 ug/ml after 24 hrs by agar diffusion method; assay type: functional; conditions: ATCC 6633, 24 h, read-out: DIZ
Escherichia coli [5] = assay: Antimicrobial activity against Escherichia coli ATCC 25922 at 1 ug/ml after 24 hrs by agar diffusion method; assay type: functional; conditions: ATCC 25922, 24 h, read-out: DIZ
Candida albicans [6] = assay: Antimicrobial activity against Candida albicans ATCC 32354 at 1 ug/ml after 24 hrs by agar diffusion method; assay type: functional; conditions: ATCC 32354, 24 h, read-out: DIZ
Salmonella enterica [7] = assay: Antimicrobial activity against Salmonella enterica ATCC 14028 at 0.1 ug/ml after 24 hrs by agar diffusion method; assay type: functional; conditions: ATCC 14028, 24 h, read-out: DIZ
Bacillus subtilis [8] = assay: Antimicrobial activity against Bacillus subtilis ATCC 6633 at 0.1 ug/ml after 24 hrs by agar diffusion method; assay type: functional; conditions: ATCC 6633, 24 h, read-out: DIZ
Staphylococcus aureus [9] = assay: Antimicrobial activity against Staphylococcus aureus ATCC 25923 at 0.1 ug/ml after 24 hrs by agar diffusion method; assay type: functional; conditions: ATCC 25923, 24 h, read-out: DIZ
Escherichia coli [10] = assay: Antimicrobial activity against Escherichia coli ATCC 25922 at 0.1 ug/ml after 24 hrs by agar diffusion method; assay type: functional; conditions: ATCC 25922, 24 h, read-out: DIZ
Pseudomonas aeruginosa [11] = assay: Antimicrobial activity against Pseudomonas aeruginosa ATCC 9027 at 0.1 ug/ml after 24 hrs by agar diffusion method; assay type: functional; conditions: ATCC 9027, 24 h, read-out: DIZ
Candida albicans [12] = assay: Antimicrobial activity against Candida albicans ATCC 32354 at 0.1 ug/ml after 24 hrs by agar diffusion method; assay type: functional; conditions: ATCC 32354, 24 h, read-out: DIZ
Candida albicans [13] = assay: Antimicrobial activity against 10^4 CFU/ml Candida albicans ATCC 32354 after 22 hrs by serial microdilution method; assay type: functional; conditions: ATCC 32354, 22 h
Bacillus subtilis [14] = assay: Antimicrobial activity against 10^4 CFU/ml Bacillus subtilis ATCC 6633 after 22 hrs by serial microdilution method; assay type: functional; conditions: ATCC 6633, 22 h
Pseudomonas aeruginosa [15] = assay: Antimicrobial activity against 10^4 CFU/ml Pseudomonas aeruginosa ATCC 9027 after 22 hrs by serial microdilution method; assay type: functional; conditions: ATCC 9027, 22 h
Escherichia coli [16] = assay: Antimicrobial activity against 10^7 CFU/ml Escherichia coli ATCC 25922 after 22 hrs by serial microdilution method; assay type: functional; conditions: ATCC 25922, 22 h
Salmonella enterica [17] = assay: Antimicrobial activity against 10^4 CFU/ml Salmonella enterica ATCC 14028 after 22 hrs by serial microdilution method; assay type: functional; conditions: ATCC 14028, 22 h
Candida albicans [18] = assay: Antimicrobial activity against 10^7 CFU/ml Candida albicans ATCC 32354 after 22 hrs by serial microdilution method; assay type: functional; conditions: ATCC 32354, 22 h
Escherichia coli [19] = assay: Antimicrobial activity against 10^4 CFU/ml Escherichia coli ATCC 25922 after 22 hrs by serial microdilution method; assay type: functional; conditions: ATCC 25922, 22 h
Salmonella enterica [20] = assay: Antimicrobial activity against 10^7 CFU/ml Salmonella enterica ATCC 14028 after 22 hrs by serial microdilution method; assay type: functional; conditions: ATCC 14028, 22 h
Staphylococcus aureus [21] = assay: Antimicrobial activity against 10^4 CFU/ml Staphylococcus aureus ATCC 25923 after 22 hrs by serial microdilution method; assay type: functional; conditions: ATCC 25923, 22 h
Pseudomonas aeruginosa [22] = assay: Antimicrobial activity against 10^7 CFU/ml Pseudomonas aeruginosa ATCC 9027 after 22 hrs by serial microdilution method; assay type: functional; conditions: ATCC 9027, 22 h
Bacillus subtilis [23] = assay: Antimicrobial activity against 10^7 CFU/ml Bacillus subtilis ATCC 6633 after 22 hrs by serial microdilution method; assay type: functional; conditions: ATCC 6633, 22 h
Staphylococcus aureus [24] = assay: Antimicrobial activity against 10^7 CFU/ml Staphylococcus aureus ATCC 25923 after 22 hrs by serial microdilution method; assay type: functional; conditions: ATCC 25923, 22 h
MEF = assay: Cytotoxicity against mouse MEF cells after 72 hrs by MTT assay; assay type: cell-based
[25] = Cytotoxicity against mouse LMTK cells after 72 hrs by MTT assay; assay type: cell-based; conditions: L-M(TK-)
RPMI-8226 = assay: Cytotoxicity against human RPMI8226 cells after 72 hrs by MTT assay; assay type: cell-based; conditions: RPMI-8226, 72 h

| Structure (SMILES) | zone of inhibition at 1 µg/mL (Staphylococcus aureus [1]) | zone of inhibition at 1 µg/mL (Salmonella enterica [2]) | zone of inhibition at 1 µg/mL (Pseudomonas aeruginosa [3]) | zone of inhibition at 1 µg/mL (Bacillus subtilis [4]) | zone of inhibition at 1 µg/mL (Escherichia coli [5]) | zone of inhibition at 1 µg/mL (Candida albicans [6]) | zone of inhibition at 0.1 µg/mL (Salmonella enterica [7]) | zone of inhibition at 0.1 µg/mL (Bacillus subtilis [8]) | zone of inhibition at 0.1 µg/mL (Staphylococcus aureus [9]) | zone of inhibition at 0.1 µg/mL (Escherichia coli [10]) | zone of inhibition at 0.1 µg/mL (Pseudomonas aeruginosa [11]) | zone of inhibition at 0.1 µg/mL (Candida albicans [12]) | MBC (Candida albicans [13]) | MIC (Candida albicans [13]) | MBC (Bacillus subtilis [14]) | MIC (Bacillus subtilis [14]) | MBC (Pseudomonas aeruginosa [15]) | MIC (Pseudomonas aeruginosa [15]) | MBC (Escherichia coli [16]) | MIC (Escherichia coli [16]) | other results |
| --- | --- | --- | --- | --- | --- | --- | --- | --- | --- | --- | --- | --- | --- | --- | --- | --- | --- | --- | --- | --- | --- |
| CCCCCCC[N+]12CC[N+](CCCCC[N+]34CC[N+](CCCCCCC)(CC3)CC4)(CC1)CC2 | 5 mm | 0 mm | 0 mm | 5 mm | 4 mm | 0 mm |  |  |  |  |  |  |  |  |  |  |  |  |  |  |  |
| CCCCCCCCCCCCCCC[N+]12CC[N+](CCCCC[N+]34CC[N+](CCCCCCCCCCCCCCC)(CC3)CC4)(CC1)CC2 |  |  |  |  |  |  | 0 mm | 0 mm | 0 mm | 0 mm | 0 mm | 0 mm |  |  |  |  |  |  |  |  |  |
| CCCCCCCC[N+]12CC[N+](CCCCC[N+]34CC[N+](CCCCCCCC)(CC3)CC4)(CC1)CC2.[Br-].[Br-].[Br-].[Br-] | 8 mm | 4 mm | 0 mm | 10 mm | 4 mm | 0 mm |  |  |  |  |  |  | < 1.6 µg/mL | < 1.6 µg/mL | 50 µg/mL | 25 µg/mL | 50 µg/mL | 25 µg/mL | 100 µg/mL | 25 µg/mL | MBC (Salmonella enterica [17]): 100 µg/mL; MIC (Salmonella enterica [17]): 100 µg/mL; MBC (Candida albicans [18]): < 1.6 µg/mL; MIC (Candida albicans [18]): < 1.6 µg/mL; MBC (Escherichia coli [19]): 50 µg/mL; MIC (Escherichia coli [19]): 12.5 µg/mL; MBC (Salmonella enterica [20]): > 100 µg/mL; MIC (Salmonella enterica [20]): 100 µg/mL; MBC (Staphylococcus aureus [21]): 100 µg/mL; MIC (Staphylococcus aureus [21]): 12.5 µg/mL; MBC (Pseudomonas aeruginosa [22]): > 100 µg/mL; MIC (Pseudomonas aeruginosa [22]): > 100 µg/mL; MBC (Bacillus subtilis [23]): 100 µg/mL; MIC (Bacillus subtilis [23]): 50 µg/mL; MBC (Staphylococcus aureus [24]): > 100 µg/mL; MIC (Staphylococcus aureus [24]): 50 µg/mL |
| O=C(O)c1cn(C2CC2)c2cc(N3CCNCC3)c(F)cc2c1=O [CIPROFLOXACIN] | 25 mm | 35 mm | 20 mm | 30 mm | 30 mm | 0 mm |  |  |  |  |  |  | > 100 µg/mL | > 100 µg/mL | < 0.8 µg/mL | < 0.8 µg/mL | 3.1 µg/mL (≈ 9.36 µM) | 1.6 µg/mL (≈ 4.83 µM) | < 0.8 µg/mL | < 0.8 µg/mL | MBC (Salmonella enterica [17]): < 0.8 µg/mL; MIC (Salmonella enterica [17]): < 0.8 µg/mL; MBC (Candida albicans [18]): 100 µg/mL (≈ 302 µM); MIC (Candida albicans [18]): 100 µg/mL (≈ 302 µM); MBC (Escherichia coli [19]): < 0.8 µg/mL; MIC (Escherichia coli [19]): < 0.8 µg/mL; MBC (Salmonella enterica [20]): < 0.8 µg/mL; MIC (Salmonella enterica [20]): < 0.8 µg/mL; MBC (Staphylococcus aureus [21]): < 0.8 µg/mL; MIC (Staphylococcus aureus [21]): < 0.8 µg/mL; MBC (Pseudomonas aeruginosa [22]): 3.1 µg/mL (≈ 9.36 µM); MIC (Pseudomonas aeruginosa [22]): 1.6 µg/mL (≈ 4.83 µM); MBC (Bacillus subtilis [23]): < 0.8 µg/mL; MIC (Bacillus subtilis [23]): < 0.8 µg/mL; MBC (Staphylococcus aureus [24]): < 0.8 µg/mL; MIC (Staphylococcus aureus [24]): < 0.8 µg/mL |
| CC[C@@]1(O)C(=O)OCc2c1cc1n(c2=O)Cc2cc3ccccc3nc2-1 [CAMPTOTHECIN] |  |  |  |  |  |  |  |  |  |  |  |  |  |  |  |  |  |  |  |  | IC50 (MEF): 5.87 µg/mL (≈ 16.9 µM); IC50 [25]: 11.7 µg/mL (≈ 33.6 µM); IC50 (RPMI-8226): 2.05 µg/mL (≈ 5.88 µM) |
| CCCCCCCCCCCCCCCC[N+]12CC[N+](CCCCC[N+]34CC[N+](CCCCCCCCCCCCCCCC)(CC3)CC4)(CC1)CC2 |  |  |  |  |  |  | 0 mm | 0 mm | 0 mm | 0 mm | 0 mm | 0 mm |  |  |  |  |  |  |  |  |  |
